What all share (type): cell-based, human
The subject of one series is HNSCC cells. Put plainly: Quantitative real-time RT-PCR of transcript levels after E2 exposure, HNSCC cells. The conditions noted are these: E2 1 nM, 24 h. As for the experimental part: Cell lines and treatments. MSK-Leuk1 cells were derived from a dysplastic leukoplakia lesion located adjacent to a SCC of the tongue. MSK-Leuk1 cells were cultured in KGM medium (Lonza, Walkersville, Md.). MSK-Leuk1 cells (passage 33) were determined to be identical to the early passage MSK-Leuk1 cells (Identity Mapping Kit, Coriell Institute for Medical Research, Camden, N.J.). All HNSCC cell lines were derived from patients with SCC of the tongue. SCC9 ([…]) and SCC15 ([…]) cells were cultured in S-MEM medium, supplemented with 2 mM L-glutamine, 100 units/ml penicillin, 100 μg/ml streptomycin and 10% FBS. […]
For all the experiments that involved estradiol (E2) exposure, MSK-Leuk1 cells were cultured in phenol red-free and serum-free DermaLife K Medium (Lifeline Cell Technology, Walkersville, Md.). […] Cells were harvested after the appropriate treatment period and analyzed.
Quantitative real-time reverse transcription PCR. RNA was extracted from pelleted cultured cells using the RNeasy Mini kit (Qiagen, Valencia, Calif.) and its quality (18S and 28S RNA) was evaluated by gel electrophoresis. cDNA was synthesized from 1 μg of total RNA, using the High Capacity cDNA Archive Kit (Applied Biosystems, Inc., Foster City, Calif.). […] Transcript levels were quantified and expressed relative to those of the human transferrin receptor (TFRC) as 2^-ΔCt.
A general note: In qPCR the cycle at which signal appears reflects the starting amount.

In series [1] the test system is MSK-Leuk1 cells. Description: Apoptosis assay (Guava Nexin, annexin V). The conditions noted are these: for decrease of apoptosis: E2 1 nM, 72 h. The procedure:
Apoptosis assay. Apoptosis was assessed using the Guava Nexin® (Millipore Corp., Billerica, Mass.). Fifty thousand cells were plated per well in 6-well plates. After the appropriate treatment, floating cells were collected, combined with attached cells following trypsinization, and resuspended in DermaLife® K Medium (Lifeline Cell Technology, Walkersville, Md.) supplemented with 5% FBS. The cell suspension (100 μl) was incubated with 100 μl of Guava Nexin® Reagent for 20 min, according to the manufacturer's instructions. Two thousand cells were analyzed from each sample using the Guava EasyCyte™ system, and the resulting data were expressed as a percentage of apoptotic cells (annexin V positive cells/total number of cells counted).

In series [2] the test system is MSK-Leuk1 cells. Description: Quantitative real-time RT-PCR of transcript levels after E2 exposure, MSK-Leuk1 cells. The conditions noted are these: E2 1 nM. The procedure: For all the experiments that involved estradiol (E2) exposure, MSK-Leuk1 cells were cultured in phenol red-free and serum-free DermaLife K Medium (Lifeline Cell Technology, Walkersville, Md.). SCC cells were cultured in their respective media with no phenol red, supplemented with charcoal-stripped serum (Gibco, Carlsbad, Calif.). Cells were incubated for 48 h to remove endogenous estrogens and then plated at 70% confluence. After 24 h, the medium was replaced with either control medium containing vehicle (0.01% ethanol) or medium supplemented with 1 nM E2 (Sigma-Aldrich, St. Louis, Mo.). Cells were harvested after the appropriate treatment period and analyzed.
Quantitative real-time reverse transcription PCR. RNA was extracted from pelleted cultured cells using the RNeasy Mini kit (Qiagen, Valencia, Calif.) and its quality (18S and 28S RNA) was evaluated by gel electrophoresis. cDNA was synthesized from 1 μg of total RNA, using the High Capacity cDNA Archive Kit (Applied Biosystems, Inc., Foster City, Calif.). Three μl of the resulting cDNA were mixed with 12.5 μl of 2× TaqMan® Universal PCR master mix and 1.25 μL of 20× primer mix (Applied Biosystems) in a final reaction volume of 25 μL, according to the manufacturer's instructions. Reactions were performed in triplicate in an Applied Biosystems 7900HT Fast Real-Time PCR System using universal conditions. Transcript levels were quantified and expressed relative to those of the human transferrin receptor (TFRC) as 2^-ΔCt.

The subject of series [3] is MSK-Leuk1 cells. Description: Cell proliferation (total DNA, Fluorescent DNA Quantitation kit). The conditions noted are these: vector-expressing MSK-Leuk1 cells, E2 1 nM, 72 h, not statistically significant. The procedure: Cell proliferation. Fifty thousand cells/well were plated in 6-well plates. After the appropriate treatment, the DNA content of the cells, an indirect measure of proliferation, was determined using a Fluorescent DNA Quantitation kit (Bio-Rad Laboratories, Hercules, Calif.). In brief, cells were harvested, sonicated in 0.1× TEN assay buffer (Bio-Rad Laboratories) for 5 s, and incubated with a Hoechst dye mixture (BioRad Laboratories) for 1 h. Total DNA was measured using Fluoroscan Ascent FL (Thermo Fisher Scientific, Waltham, Mass.) at an excitation wavelength of 360 nm and an emission wavelength of 460 nm.

In series [4] the test system is MSK-Leuk1 cells. Put plainly: Cell motility assay (scratch gap closure). The conditions noted are these: vector or CYP1B1 shRNA, E2 1 nM, 16 h post-scratch. As for the experimental part: Cell motility assay. MSK-Leuk1 cells, expressing either vector or CYP1B1 shRNA, were cultured in phenol red-free and serum-free medium for 48 h and then plated at 70% confluence. After 24 h, the cells were treated with either vehicle or E2 (1 nM) in triplicate, as described above. When cells reached 100% confluence (48 h later), the surface of the cell culture dish was carefully scratched using a micropipette tip, thus making an evenly distributed gap in the cell monolayer. The medium was replaced, and five representative images of each gap were acquired at 0 h using a Nikon TE-2000U wide field inverted microscope (Optical Apparatus Co., Ardmore, Pa.) equipped with a Roper Scientific Cool Snap HQ camera. Another set of 5-10 representative images per gap was obtained following a 16-h incubation. The area devoid of cells was measured on every image using MetaMorph 7.0 (Molecular Devices, Inc., Sunnyvale, Calif.). The gap closure percentages were calculated as (area at 0 h−area at 16 h)/(area at 0 h).
In addition, a time-lapse movie capturing the process of gap closure in vector-expressing MSK-Leuk1 cells was obtained. The medium was replaced with fresh medium containing 25 mM HEPES buffer, and cells were allowed to incubate for 1 h at 37° C. […] The percentage of proliferating cells (those rounded up for cell division) was counted in this representative area.

The values below come from US20130217594A1, “METHODS FOR SCREENING COMPOUNDS FOR CAPABILITY TO INHIBIT PREMALIGNANT SQUAMOUS EPITHELIAL CELL PROGRESSION TO A MALIGNANT STATE” (Institute for Cancer Research d/b/a The Research Center of …, priority 2010, published 2013).

The structures appear in SMILES notation.

On to `C[C@]12CC[C@@H]3c4ccc(O)cc4CC[C@H]3[C@@H]1CC[C@@H]2O` [E2, 17β-estradiol], for which the “levels of ERβ, CYP1B1 and COMT transcripts” value with HNSCC cells is listed as “did not alter the level of any of the transcripts of interest”. Besides, the decrease of apoptosis in the series with MSK-Leuk1 cells [1] (CYP1B1 shRNA-expressing MSK-Leuk1 cells, P=0.015) worked out at 30.1%; in the series with MSK-Leuk1 cells [1] (vector-expressing MSK-Leuk1 cells, P=0.030), 25.5%. The “levels of COMT and ERβ transcripts post-treatment” value in the series with MSK-Leuk1 cells [2] is on record as “remained unaltered”. Further, in the series on MSK-Leuk1 cells [2] (24 h, P=0.0004), the “induction of CYP1B1 transcript levels over vehicle-treated controls” value is given as 2.3 fold. The “time of peak induction of CYP1B1 transcripts” value with MSK-Leuk1 cells [2] (time course) worked out at 6 h. Also, in the series with MSK-Leuk1 cells [3], the “increase of cell proliferation” value came to 10%. Besides, the “effect of treatment on motility (gap closure)” value in the series with MSK-Leuk1 cells [4] is listed as “not affected”.
In the case of `C[C@]12CC[C@@H]3c4ccc(O)cc4C[C@@H](CCCCCCCCC[S+]([O-])CCCC(F)(F)C(F)(F)F)[C@H]3[C@@H]1CC[C@@H]2O` (stereo partly drawn) [fulvestrant], in the series with MSK-Leuk1 cells [1] (MSK-Leuk1 cells, fulvestrant 1 μM added to E2 1 nM), the “effect on E2-mediated decrease in apoptosis” value is on record as “restored”.
